The record followed here is patent publication US10961216B2, “Small molecule modulators of the androgen receptor” (Massachusetts Institute of Technology, priority 2017, dated 2021).

One series relates to LNCaP. The series is described as follows: LNCaP reporter assay. The series is classed as cell-based. The conditions noted are these: Homo sapiens. The text has this:
(§1) To meet this need, compounds binding to AR-v7 were identified using the combination of a small molecule microarray (SMM) screen of 50,000 compounds, qPCR, and reporter assays. The SMM was screened against a functional AR-truncate composed of the NTD and DBD (exons 1-3) and therefore targeting these domains specifically. Candidate compounds were further evaluated in a series of assays designed to show specificity to AR-sensitive cell lines.
Compounds of the invention may also be identified via a reporter assay. Reporter assays are commonly used to study signaling pathways, gene expression and regulation at the transcriptional level, and the structure of regulatory elements. In general, a reporter assay comprises a regulatory element of interest (e.g. promoter DNA) along with a reporter gene (e.g., gene encoding a reporter protein) cloned into a vector and transfected into cells. In certain embodiments, a reporter is a protein. In certain embodiments, a reporter is a protein with an easily measureable activity. “Easily measureable activity” (or simply “activity”) can refer to any activity that can be measured through methods known in the art, such as fluorescence, enzymatic activities that generate fluorescent or luminescent products, or indirectly with antibodies. […]

Another series deals with T1, AR-v7 (Homo sapiens, UniProt P10275).
T1 construct: screened against a functional AR-truncate composed of the NTD and DBD (exons 1-3)
T1 sequence (P10275 1-628 limits assumed): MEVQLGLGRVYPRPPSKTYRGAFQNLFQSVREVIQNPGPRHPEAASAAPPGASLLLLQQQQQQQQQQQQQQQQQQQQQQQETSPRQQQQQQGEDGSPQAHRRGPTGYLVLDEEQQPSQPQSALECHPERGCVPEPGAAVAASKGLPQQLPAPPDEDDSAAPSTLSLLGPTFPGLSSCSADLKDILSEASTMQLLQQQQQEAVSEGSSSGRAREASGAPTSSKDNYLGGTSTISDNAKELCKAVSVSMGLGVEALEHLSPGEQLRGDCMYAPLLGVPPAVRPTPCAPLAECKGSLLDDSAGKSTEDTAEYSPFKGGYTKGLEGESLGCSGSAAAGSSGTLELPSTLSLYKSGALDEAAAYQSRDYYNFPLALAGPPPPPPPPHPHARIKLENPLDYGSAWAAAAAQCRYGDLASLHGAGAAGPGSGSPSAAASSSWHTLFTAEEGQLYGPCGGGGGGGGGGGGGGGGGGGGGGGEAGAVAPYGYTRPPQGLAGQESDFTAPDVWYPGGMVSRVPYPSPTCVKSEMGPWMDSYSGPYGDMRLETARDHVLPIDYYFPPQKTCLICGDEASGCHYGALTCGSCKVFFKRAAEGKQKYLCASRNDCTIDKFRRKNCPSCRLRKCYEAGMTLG
The series is described as follows: small molecule microarray (SMM) screen, binding to AR-v7. The conditions noted are these: SMM screened against AR-truncate of NTD and DBD (exons 1-3), with qPCR and reporter assays.
Description: as §1

The test system of the next series is VCaP (AR+) cell lines. The series is described as follows: cell proliferation, VCaP. To be noted: 72 hours. Format: cell-based.
In another series the test system is PC3 (AR-) cell lines. The series can be described thus: cell proliferation, PC3. The series is classed as cell-based. The conditions noted are these: 72 hours.
Another series deals with LNCaP (AR+) cell lines. The series can be described thus: cell proliferation, LNCaP. To be noted: 72 hours. The series is classed as cell-based, human.
A short description of a further series: aggregation monitoring. The series is classed as physicochemical. The conditions noted are these: at IC50 in RPMI, DMSO, or PBS. As to the method: All compounds were evaluated in a reporter gene assay (22Rv1 cell line lentiviral transduced with CMV-firefly luciferase) to monitor transcriptional effects and two cell viability assays (Cell-titer blue; PC3 cell line, an AR insensitive cell line, and LNCaP cell line, an AR sensitive cell line). The compounds were also monitored for aggregation.

The next series deals with prostate cancer cell. The series can be described thus: prostate cancer cell proliferation, different cancer cell lines. The series is classed as cell-based. To be noted: 72 hours.
The test system of another series is 22Rv1 (AR+) cell lines. The series is described as follows: cell proliferation, 22Rv1. To be noted: 72 hours. The series is classed as cell-based.
In a further series the test system is DU-145 (AR-) cell lines. The series can be described thus: cell proliferation, DU-145. Format: cell-based. To be noted: 72 hours.

For the molecule `Cc1c(C(=O)N(C)Cc2cccc3ncccc23)sc2ncnc(NCC3C[C@@H]4C=C[C@H]3C4)c12` (stereo partly drawn) [Compound (2), 4-((((1R,4R)-bicyclo[2.2.1]hept-5-en-2-yl)methyl)amino)-N,5-dimethyl-N-(quinolin-5-ylmethyl)thieno[2,3-d]pyrimidine-6-carboxamide], the IC50 (usually the concentration that gives 50% inhibition) with LNCaP came out at 6.86 µM. Besides, at AR-v7, the “binding to AR-v7” value is listed as “found to bind to AR-v7”.
For `O=C(NCCC1C[C@@H]2C=C[C@H]1C2)c1cccc(OC2CCN(C(=O)C3CC3)CC2)c1` (stereo partly drawn) [Compound (1), N-(2-((1S,4S)-bicyclo[2.2.1]hept-5-en-2-yl)ethyl)-3-((1-(cyclopropanecarbonyl)piperidin-4-yl)oxy)benzamide], the “cell proliferation (percent confluence)” value in the series with VCaP (AR+) cell lines, with PC3 (AR-) cell lines, in the series on LNCaP (AR+) cell lines, with 22Rv1 (AR+) cell lines and in the series with DU-145 (AR-) cell lines was “stagnates prostate cancer cell proliferation” throughout. In the series on LNCaP, the IC50 was 5.43 µM. Moreover, the formation of aggregates result in “aggregation monitoring” is recorded as “does not form aggregates”. The “prostate cancer cell proliferation (relative proliferation, percent confluence)” value in the series on prostate cancer cell is “stagnates prostate cancer cell proliferation”. Further, on AR-v7, the “binding to AR-v7” value is on record as “found to bind to AR-v7”.
